Legend:
[1] = test system: 4T1 cells; experiment: Example 1: bintrafusp alfa, RT and Compound A in the 4T1 mammary tumor model; format: in vivo, BALB/c mice; conditions: mice sacrificed at tumor volume ≈2000 mm^3; Compound A 100 mg/kg p.o. day 0-10 where given
[2] = test system: 4T1 cells; experiment: Example 4: triple combination with various RT doses versus bintrafusp alfa+RT, 4T1 mammary tumor model; conditions: RT 8Gy, QDx4
Method: Balb/c mice were inoculated with 4T1 cells (0.5×10^6) in the right thigh muscle (day −7). At day 0, when average tumor volumes reached 150 mm^3, mice were treated (n=10 mice/group) with isotype control (400 μg i.v.; Days 0, 2, 4), Bintrafusp alfa (492 μg/mouse i.v.; Days 0, 2, 4)+RT (8Gy, QDx4), or bintrafusp alfa+Compound A (100 mg/kg p.o., QDx4)+RT (8Gy or 6Gy or 4Gy or 2Gy, QDx4). Tumor volumes were measured twice weekly and presented as mean±SEM. P-values were calculated by two-way ANOVA with Sidack's or Tukey's post-test. P-values comparing median survival were calculated with the Log-rank (Mantel-Cox) test.
Treatment was initiated on day 0 when average tumor volume reached ˜150 mm^3. Mice were sacrificed when tumor volumes reached ˜2500 mm^3. […]
Tumor volumes were calculated with the following formula: tumor volume (mm^3)=tumor length×width×height×0.5236.
To compare the percentage survival between different treatment groups, Kaplan-Meier survival curves were generated. Body weight was measured twice weekly and mice were sacrificed when their tumor volume exceeded 2,000 mm^3.
Statistical analyses were performed using GraphPad Prism Software, version 8.0 or 8.0.1. […] A Kaplan-Meier plot was generated to show survival by treatment group and significance was assessed by log-rank (Mantel-Cox) test.

[3] = test system: 4T1 cells; experiment: Example 2: dosing schedule of Compound A in the triple combination, 4T1 mammary tumor model; conditions: dual combination without Compound A
Method: BALB/c mice were inoculated intramuscularly (i.m.) with 0.5×10^5 4T1 cells (day −7) and treated (n=10 mice/group) with isotype control (400 μg i.v.; day 0, 2, 4)+vehicle control (0.2 mL, p.o., day 0-17), bintrafusp alfa (492 μg i.v.; day 0, 2, 4)+RT (8 Gy, day 0-3), or bintrafusp alfa+RT+Compound A (100 mg/kg, p.o, days 0-3, days 0-10, or day 0-17). Tumor volumes were measured twice weekly and presented as (A) mean±SEM or (B) individual tumor volumes. P-values were calculated by two-way RM ANOVA with Tukey's post-test. (C) For survival analysis, mice were sacrificed when tumor volumes reached ≈2000 mm^3 and median survival times were calculated.
The effect of different dosing schedules of Compound A on the antitumor activity of the triple combination therapy was evaluated in the 4T1 mammary tumor model. […]
(§1) Tumor volumes were calculated with the following formula: tumor volume (mm^3)=tumor length×width×height×0.5236. Tumor growth inhibition (TGI) was calculated with the following formula: TGI (%)=[1−(Ti−T0)/(Vi−V0)]×100, where Ti is the average tumor volume (mm^3) of a treatment group on a given day, TO is the average tumor volume of the treatment group on the first day of treatment, Vi is the average tumor volume of the vehicle control group on the same day as Ti, and V0 is the average tumor volume of the vehicle control group on the first day of treatment. […]

[4] = test system: 4T1 cells; experiment: Example 3: triple combination versus dual and monotherapy controls, 4T1 mammary tumor model; conditions: day 18
Method: BALB/c mice were inoculated intramuscularly (i.m.) with 0.5×10^5 4T1 cells (day −7) and treated (n=10 mice/group) with isotype control (400 μg i.v.; day 0, 2, 4)+vehicle control (0.2 mL, p.o., day 0-4), bintrafusp alfa (492 μg i.v.; day 0, 2, 4)+vehicle control, RT (8 Gy, day 0-3)+isotype control+vehicle control, Compound A (100 mg/kg, p.o, days 0-4)+isotype control, bintrafusp alfa+RT, bintrafusp alfa+Compound A, RT+Compound A, or bintrafusp alfa+RT+Compound A. Tumor volumes were measured twice weekly and presented as (A) mean±SEM or (B) individual tumor volumes. P-values were calculated by two-way RM ANOVA with Tukey's post-test. (C) For survival analysis, mice were sacrificed when tumor volumes reached ≈2000 mm^3 and median survival times were calculated. […]
as §1

In the case of “bintrafusp alfa and RT: dual combination therapy of bintrafusp alfa with radiotherapy (RT)”, the median survival [1] is reported as 26 days, the median survival [2] is reported as 26 days and the median survival [3] is reported as 26 days. For the same substance, the “antitumor activity of dual combination therapy relative to the respective monotherapies” value [4] was “enhanced antitumor activity”.

Reference: patent US20230044248A1, “COMBINED INHIBITION OF PD-1, TGFBeta AND ATM TOGETHER WITH RADIOTHERAPY FOR THE TREATMENT OF CANCER” (ARES TRADING S.A., priority 2019, published 2023)
